From ChEMBL document CHEMBL3596106, “Structure-activity relationship study of E6 as a novel necroptosis inducer” (Bioorg Med Chem Lett, 2015)
pEC50: −log10 of the molar value. The source made the active and inactive calls.

Tested on: Jurkat (Homo sapiens)
Test: Potency index, ratio of EC50 for E6 to EC50 for test compound for induction of necroptosis in human Jurkat T cells incubated for 24 hrs by ATP-based cell viability assay
Details: not given

`CCOc1ccc(-c2ccc(NCc3ccccc3O)cc2)cc1` was tested. Which “Ratio EC50” value did it give?
Its value is 17.

`Oc1ccccc1CNc1ccc(-c2ccccc2)cc1` was tested. Which “Ratio EC50” value did it give?
The value was 5.

`COc1ccc(-c2ccc(NCc3ccccc3O)cc2)cc1` was tested. Which “Ratio EC50” value did it give?
Its value is 17.

Tested on: Jurkat
Test: Induction of necroptosis in human Jurkat T cells incubated for 24 hrs by ATP-based cell viability assay
Type: functional
Details: Homo sapiens, Jurkat, 24 h; read-out: EC50

`COc1ccc(-c2ccc(NCc3ccccc3O)cn2)cc1` was tested. Which pEC50 did it give?
The pEC50 was 5.32.

`Oc1ccccc1CNc1ccc(-c2ccccc2F)cc1` was tested. Which pEC50 did it give?
The pEC50 was 5.67.

How did the pEC50 turn out when `CC(C)Oc1ccc(-c2ccc(NCc3ccccc3O)cc2)cc1` was run?
The pEC50 was 5.23.

How did the pEC50 turn out when `Oc1ccccc1CNc1ccc(-c2cccc(F)c2)cc1` was run?
Its pEC50 is 5.69.

`CCOc1ccc(-c2ccc(NCc3ccccc3O)cc2)cc1` was tested. Which pEC50 did it give?
The pEC50 was 6.28.

How did the pEC50 turn out when `Oc1ccccc1CNc1ccc(-c2ccccc2)c(F)c1` was run?
The pEC50 was 5.55.

`Oc1ccccc1CNc1ccc(-c2cccc(Cl)c2)cc1` was tested. Which pEC50 did it give?
The pEC50 was 5.21.

How did the pEC50 turn out when `Oc1ccccc1CNc1ccc(-c2ccccc2)nc1` was run?
Its pEC50 is 6.08.

`Oc1ccccc1CNc1ccc(-c2ccc(F)cc2)cc1` was tested. Which pEC50 did it give?
Its pEC50 is 5.41.

`Oc1ccccc1CNc1ccc(-c2ccc(F)cc2)nc1` was tested. Which pEC50 did it give?
Its pEC50 is 5.59.

With `Oc1ccccc1CNc1ccc(-c2ccccc2)cc1F` as the molecule, how does the pEC50 read?
Its pEC50 is 5.27.

`Cc1ccc(-c2ccc(NCc3ccccc3O)cc2)cc1` was tested. Which pEC50 did it give?
Its pEC50 is 5.42.

With `CCSc1ccc(-c2ccc(NCc3ccccc3O)cn2)cc1` as the molecule, how does the pEC50 read?
The pEC50 was 5.72.

How did the pEC50 turn out when `Oc1ccccc1CNc1ccc(-c2ccccc2)cc1` was run?
The pEC50 was 5.74.

With `Cc1cc(NCc2ccccc2O)ccc1-c1ccccc1` as the molecule, how does the pEC50 read?
The pEC50 was 5.06.

How did the pEC50 turn out when `CCCc1ccc(-c2ccc(NCc3ccccc3O)cc2)cc1` was run?
The pEC50 was 5.62.

With `CCOc1ccc(-c2ccc(NCc3ccccc3O)cc2)cc1F` as the molecule, how does the pEC50 read?
Its pEC50 is 5.60.

How did the pEC50 turn out when `CCSc1ccc(-c2ccc(NCc3ccccc3O)cc2)cc1` was run?
The pEC50 was 5.70.

How did the pEC50 turn out when `Oc1ccccc1CNc1ccc(-c2ccc(Cl)cc2)cc1` was run?
The pEC50 was 5.62.

`Cc1ccccc1-c1ccc(NCc2ccccc2O)cc1` was tested. Which pEC50 did it give?
Its pEC50 is 5.28.

How did the pEC50 turn out when `Oc1ccccc1CNc1ccc(C2CCCCC2)cc1` was run?
Its pEC50 is 5.06.

`COc1ccc(-c2ccc(NCc3ccccc3O)cc2)cc1` was tested. Which pEC50 did it give?
The pEC50 was 6.24.

How did the pEC50 turn out when `Cc1cccc(-c2ccc(NCc3ccccc3O)cc2)c1` was run?
The pEC50 was 5.04.

Same assay, conditions: jurkat

`Oc1ccccc1CNc1ccc(-c2cccc(OC(F)(F)F)c2)cc1` was tested. Which EC50 did it give?
The EC50 was “Not Active”.

How did the EC50 turn out when `N#Cc1ccc(-c2ccc(NCc3ccccc3O)cc2)cc1` was run?
The EC50 was “Not Active”.

For `Oc1ccccc1CNc1ccc(-c2ccc(Cl)cc2)nc1`, which EC50 is on record?
The EC50 was “Not Active”.

`CCOc1ccc(-c2ccc(NCc3ccccc3O)cn2)cc1` was tested. Which EC50 did it give?
Its EC50 is “Not Active”.

With `CN(Cc1ccccc1O)c1ccc(C2CCCCC2)cc1` as the molecule, how does the EC50 read?
The EC50 was “Not Active”.

Which EC50 does the source give for `Oc1ccccc1/C=N/c1ccc(C2CCCCC2)cc1` here?
The EC50 was “Not Active”.

How did the EC50 turn out when `Oc1ccccc1NCc1ccc(C2CCCCC2)cc1` was run?
Its EC50 is “Not Active”.

For `Oc1ccccc1CNc1ccc(N2CCCCC2)cc1`, which EC50 is on record?
The EC50 was “Not Active”.

`Oc1ccccc1CNc1ccc(F)cc1` was tested. Which EC50 did it give?
Its EC50 is “Not Active”.

`CC(Nc1ccc(C2CCCCC2)cc1)c1ccccc1O` (stereo not given) was tested. Which EC50 did it give?
The EC50 was “Not Active”.

For `Oc1ccccc1CNc1ccc(-c2ccc(OC(F)(F)F)cc2)cc1`, which EC50 is on record?
The EC50 was “Not Active”.

How did the EC50 turn out when `N#Cc1ccccc1-c1ccc(NCc2ccccc2O)cc1` was run?
The EC50 was “Not Active”.

`COc1ccccc1CNc1ccc(C2CCCCC2)cc1` was tested. Which EC50 did it give?
Its EC50 is “Not Active”.

Which EC50 does the source give for `Cc1ccc(-c2ccc(NCc3ccccc3O)cn2)cc1` here?
Its EC50 is “Not Active”.

Which EC50 does the source give for `Cc1ccc(CNc2ccc(C3CCCCC3)cc2)c(O)c1` here?
Its EC50 is “Not Active”.

Which EC50 does the source give for `Oc1ccccc1CNc1ccc(N2CCNCC2)cc1` here?
Its EC50 is “Not Active”.

For `Oc1ccccc1CNc1ccc(-c2ccccc2Cl)cc1`, which EC50 is on record?
Its EC50 is “Not Active”.

`Oc1ccccc1CCc1ccc(C2CCCCC2)cc1` was tested. Which EC50 did it give?
Its EC50 is “Not Active”.

For `Oc1cc(F)ccc1CNc1ccc(C2CCCCC2)cc1`, which EC50 is on record?
Its EC50 is “Not Active”.

With `COc1ccc(CNc2ccc(C3CCCCC3)cc2)c(O)c1` as the molecule, how does the EC50 read?
The EC50 was “Not Active”.

With `O=[N+]([O-])c1ccc(NCc2ccccc2O)cc1` as the molecule, how does the EC50 read?
The EC50 was “Not Active”.

How did the EC50 turn out when `Oc1cccc(-c2ccc(NCc3ccccc3O)cc2)c1` was run?
Its EC50 is “Not Active”.

Which EC50 does the source give for `Oc1ccccc1Nc1ccc(C2CCCCC2)cc1` here?
The EC50 was “Not Active”.

With `Oc1cc(I)ccc1CNc1ccc(C2CCCCC2)cc1` as the molecule, how does the EC50 read?
Its EC50 is “Not Active”.

How did the EC50 turn out when `Oc1ccccc1CNc1ccc(-c2ccc(-c3ccccc3)cc2)cc1` was run?
The EC50 was “Not Active”.

With `Oc1ccc(-c2ccc(NCc3ccccc3O)cc2)cc1` as the molecule, how does the EC50 read?
Its EC50 is “Not Active”.

Which EC50 does the source give for `Oc1cc(C(F)(F)F)ccc1CNc1ccc(C2CCCCC2)cc1` here?
Its EC50 is “Not Active”.

`Oc1ccccc1CNc1cc(-c2ccccc2)no1` was tested. Which EC50 did it give?
Its EC50 is “Not Active”.

`CN1CCN(c2ccc(NCc3ccccc3O)cc2)CC1` was tested. Which EC50 did it give?
The EC50 was “Not Active”.

How did the EC50 turn out when `COc1cccc(-c2ccc(NCc3ccccc3O)cc2)c1` was run?
Its EC50 is “Not Active”.

How did the EC50 turn out when `COC(=O)c1ccc(-c2ccc(NCc3ccccc3O)cc2)cc1` was run?
Its EC50 is “Not Active”.

How did the EC50 turn out when `Oc1cc(-c2ccccc2)ccc1CNc1ccc(C2CCCCC2)cc1` was run?
Its EC50 is “Not Active”.

Which EC50 does the source give for `Oc1ccc(CNc2ccc(C3CCCCC3)cc2)cc1` here?
Its EC50 is “Not Active”.

For `Oc1ccccc1CNc1ccc(-c2ccc(N3CCOCC3)cc2)nc1`, which EC50 is on record?
The EC50 was “Not Active”.

With `Cc1cccc(CNc2ccc(C3CCCCC3)cc2)c1O` as the molecule, how does the EC50 read?
The EC50 was “Not Active”.

With `c1ccc(CNc2ccc(C3CCCCC3)cc2)cc1` as the molecule, how does the EC50 read?
The EC50 was “Not Active”.

Which EC50 does the source give for `Oc1ccccc1CNc1ccc(N2CCCC2)cc1` here?
The EC50 was “Not Active”.

How did the EC50 turn out when `Oc1ccccc1CNc1ccccc1` was run?
Its EC50 is “Not Active”.

For `CCCOc1ccc(-c2ccc(NCc3ccccc3O)cc2)cc1`, which EC50 is on record?
The EC50 was “Not Active”.

How did the EC50 turn out when `O=C(Nc1ccc(C2CCCCC2)cc1)c1ccccc1O` was run?
Its EC50 is “Not Active”.

How did the EC50 turn out when `Oc1ccccc1CNc1ccc(-c2ccccc2)cn1` was run?
Its EC50 is “Not Active”.

`Oc1ccccc1CCNc1ccc(C2CCCCC2)cc1` was tested. Which EC50 did it give?
Its EC50 is “Not Active”.

With `CCOc1cccc(-c2ccc(NCc3ccccc3O)cc2)c1` as the molecule, how does the EC50 read?
The EC50 was “Not Active”.

`Oc1ccccc1CNc1nc(-c2ccccc2)cs1` was tested. Which EC50 did it give?
Its EC50 is “Not Active”.

`Cc1ccc(O)c(CNc2ccc(C3CCCCC3)cc2)c1` was tested. Which EC50 did it give?
Its EC50 is “Not Active”.

Which EC50 does the source give for `Oc1ccccc1CNc1ccc(-c2ccc(C(F)(F)F)cc2)cc1` here?
The EC50 was “Not Active”.

For `COc1ccccc1-c1ccc(NCc2ccccc2O)cc1`, which EC50 is on record?
Its EC50 is “Not Active”.

With `CC(C)(C)c1ccc(-c2ccc(NCc3ccccc3O)cc2)cc1` as the molecule, how does the EC50 read?
The EC50 was “Not Active”.

`CC(=O)c1ccc(-c2ccc(NCc3ccccc3O)cc2)cc1` was tested. Which EC50 did it give?
The EC50 was “Not Active”.

For `Cc1cc(-c2ccccc2)ccc1NCc1ccccc1O`, which EC50 is on record?
Its EC50 is “Not Active”.

How did the EC50 turn out when `Oc1ccccc1CNc1ccc(-c2cccc(OCc3ccccc3)c2)cc1` was run?
The EC50 was “Not Active”.

Tested on: Jurkat
Test: Induction of necroptosis in human Jurkat T cells incubated for 24 hrs in presence of caspase inhibitor zVAD.fmk by ATP-based cell viability assay
Type: functional
Details: not given

For `Oc1ccccc1CNc1ccc(C2CCCCC2)cc1`, which Activity is on record?
Its Activity is “Active”.

Tested on: Jurkat
Test: Induction of necroptosis in human Jurkat T cells incubated for 24 hrs in presence of Nec-8 by ATP-based cell viability assay
Type: functional
Details: not given

Which Activity does the source give for `Oc1ccccc1CNc1ccc(C2CCCCC2)cc1` here?
The Activity was “inactive”.

Tested on: Jurkat
Test: Induction of necroptosis in human Jurkat T cells incubated for 24 hrs in presence of RIPK1 inhibitor Nec-1 by ATP-based cell viability assay
Type: functional
Details: not given

With `Oc1ccccc1CNc1ccc(C2CCCCC2)cc1` as the molecule, how does the Activity read?
Its Activity is “Active”.
